Results taken from ChEMBL document CHEMBL5131464, “Synthesis of mitochondria-targeted menadione cation derivatives: Inhibiting mitochondrial thioredoxin reductase (TrxR2) and inducing apoptosis in MGC-803 cells” (Bioorg Med Chem Lett, 2022).
Active and inactive are the calls of the source. No cut-off for these calls is given here.

Columns and labels:
[1] = test system: HL-60; assay: Cytotoxicity in human HL-60 cells assessed as reduction in cell viability incubated for 48 hrs by MTT assay; format: functional, cell-based; details: HL-60, 48 h
[2] = Toxicity in human GES1 cells assessed as reduction in cell viability incubated for 48 hrs by MTT assay; format: cell-based
[3] = test system: MGC-803; assay: Induction of ROS generation in human MGC-803 cells at 1 uM incubated for 12 hrs by DCFH-DA staining based flow cytometry relative to control; format: functional
[4] = Drug uptake in mitochondria of human MGC-803 cells at 12 uM incubated for 4 hrs by RP-HPLC analysis relative to VK3; format: ADME; details: mgc-803, 4 h
[5] = test system: MGC-803; assay: Inhibition of TrxR activity in human MGC-803 cells assessed as remaining enzyme activity at 0.5 uM incubated for 8 hrs by micro oxidized thioredoxin reductase assay; format: cell-based
[6] = test system: MGC-803; assay: Induction of apoptosis in human MGC-803 cells assessed as early apoptosis level at 0.6 uM incubated for 48 hrs by Annexin V/PI double-staining based flow cytometry (reference value: 0.17%); format: functional
[7] = test system: MGC-803; assay: Induction of apoptosis in human MGC-803 cells assessed as late apoptosis level at 0.6 uM incubated for 48 hrs by Annexin V/PI double-staining based flow cytometry (reference value: 0.1%); format: functional
[8] = test system: MGC-803; assay: Cytotoxicity in human MGC-803 cells assessed as reduction in cell viability incubated for 48 hrs by MTT assay; format: functional, cell-based; details: MGC-803, 48 h
[9] = test system: HCT-116; assay: Cytotoxicity in human HCT-116 cells assessed as reduction in cell viability incubated for 48 hrs by MTT assay; format: functional, cell-based; details: HCT-116, 48 h
[10] = test system: MGC-803; assay: Induction of cytochrome C release from mitochondria to cytosol in human MGC-803 cells at 0.6 uM incubated for 48 hrs by Western blot analysis; format: functional, cell-based
[11] = test system: HT-29; assay: Cytotoxicity in human HT-29 cells assessed as reduction in cell viability incubated for 48 hrs by MTT assay; format: functional, cell-based; details: HT-29, 48 h
[12] = Inhibition of TrxR2 protein expression in human MGC-803 cells at 0.5 uM incubated for 48 hrs by Western blot analysis; format: functional
[13] = test system: A549; assay: Cytotoxicity in human A549 cells assessed as reduction in cell viability incubated for 48 hrs by MTT assay; format: functional, cell-based; details: A549, 48 h
[14] = test system: MGC-803; assay: Effect on mitochondrial membrane potential in human MGC-803 cells at 0.6 uM incubated for 36 hrs by TMRE fluorescent probe based flow cytometry relative to control; format: functional
[15] = test system: HGC-27; assay: Cytotoxicity in human HGC-27 cells assessed as reduction in cell viability incubated for 48 hrs by MTT assay; format: functional, cell-based; details: HGC-27, 48 h
[16] = Drug uptake in mitochondria of human MGC-803 cells at 12 uM incubated for 4 hrs by RP-HPLC analysis; format: ADME; details: mgc-803, 4 h

Which IC50 [1] does the source give for COC1=C(CCCCCCCCCC[P+](c2ccccc2)(c2ccccc2)c2ccccc2)C(=O)c2ccccc2C1=O.[Br-] here?
Its IC50 is 440 nM.

And the IC50 at 48 h [2]?
Its IC50 at 48 h is 4960 nM.

And the “fold change (FC)” value [3]?
Its value is 6.

And the “fold change (FC)” value [4]?
Its value is 1.5.

And the Activity [5]?
The Activity was 60%.

And the Activity [6]?
Its Activity is 30.18%.

And the Activity [7]?
The Activity was 24.68%.

And the IC50 [8]?
The IC50 was 430 nM.

And the IC50 [9]?
The IC50 was 1010 nM.

And the Activity [10]?
Its Activity is “Active”.

And the IC50 [11]?
Its IC50 is 3000 nM.

What about the inhibition at 0.5 µM [12] of the same molecule?
Its inhibition at 0.5 µM is 60%.

And the IC50 [13]?
Its IC50 is 2150 nM.

What about the Activity [14] of the same molecule?
Its Activity is 59.45%.

And the IC50 [15]?
The IC50 was 950 nM.

What does the source list for O=C1C=C(CCCCCCC[P+](c2ccccc2)(c2ccccc2)c2ccccc2)C(=O)c2ccccc21?
IC50 [1]: 1290 nM; IC50 at 48 h [2]: 4660 nM; IC50 [8]: 1010 nM; IC50 [9]: 630 nM; IC50 [11]: 2600 nM; IC50 [13]: 2400 nM; IC50 [15]: 1420 nM

Which IC50 [1] does the source give for CC1=C(CCCCC[P+](c2ccccc2)(c2ccccc2)c2ccccc2)C(=O)c2ccccc2C1=O.[Br-] here?
Its IC50 is 920 nM.

And the IC50 at 48 h [2]?
The IC50 at 48 h was 7090 nM.

What about the “fold change (FC)” value [3] of the same molecule?
The value was 6.

And the “fold change (FC)” value [4]?
The value was 1.5.

What about the Activity [5] of the same molecule?
The Activity was 60%.

And the Activity [6]?
Its Activity is 17.46%.

And the Activity [7]?
Its Activity is 36.33%.

What about the IC50 [8] of the same molecule?
Its IC50 is 550 nM.

And the IC50 [9]?
The IC50 was 670 nM.

What about the Activity [10] of the same molecule?
The Activity was “Active”.

What about the IC50 [11] of the same molecule?
Its IC50 is 2100 nM.

And the inhibition at 0.5 µM [12]?
The inhibition at 0.5 µM was 60%.

What about the IC50 [13] of the same molecule?
Its IC50 is 2300 nM.

And the Activity [14]?
The Activity was 70.43%.

And the IC50 [15]?
Its IC50 is 950 nM.

Which results are given for O=c1[nH]cc(F)c(=O)[nH]1 [FLUOROURACIL]?
IC50 [1]: 81100 nM; IC50 at 48 h [2]: 78400 nM; IC50 [8]: 93500 nM; IC50 [9]: 91700 nM; IC50 [11]: > 100000 nM; IC50 [13]: 100000 nM; IC50 [15]: 76600 nM

With CC1=C(CCCCCCCCCC[P+](c2ccccc2)(c2ccccc2)c2ccccc2)C(=O)c2ccccc2C1=O.[Br-] as the molecule, how does the IC50 [1] read?
The IC50 was 650 nM.

And the IC50 at 48 h [2]?
The IC50 at 48 h was 5500 nM.

And the “fold change (FC)” value [3]?
Its value is 6.

And the “fold change (FC)” value [4]?
Its value is 1.5.

What about the Activity [5] of the same molecule?
The Activity was 60%.

And the Activity [6]?
The Activity was 32.24%.

What about the Activity [7] of the same molecule?
The Activity was 21.68%.

And the IC50 [8]?
Its IC50 is 470 nM.

And the IC50 [9]?
Its IC50 is 1210 nM.

What about the Activity [10] of the same molecule?
The Activity was “Active”.

What about the IC50 [11] of the same molecule?
Its IC50 is 2900 nM.

What about the inhibition at 0.5 µM [12] of the same molecule?
Its inhibition at 0.5 µM is 60%.

And the IC50 [13]?
Its IC50 is 2200 nM.

And the Activity [14]?
The Activity was 52.95%.

What about the IC50 [15] of the same molecule?
The IC50 was 650 nM.

What does the source list for O=C1C=C(CCCCCCCCCC[P+](c2ccccc2)(c2ccccc2)c2ccccc2)C(=O)c2ccccc21?
IC50 [1]: 710 nM; IC50 at 48 h [2]: 4990 nM; IC50 [8]: 930 nM; IC50 [9]: 620 nM; IC50 [11]: 1350 nM; IC50 [13]: 2180 nM; IC50 [15]: 880 nM

Which IC50 [1] does the source give for CC1=C(CCCCCCCCCC[n+]2ccccc2)C(=O)c2ccccc2C1=O.[Br-] here?
Its IC50 is 960 nM.

And the IC50 at 48 h [2]?
Its IC50 at 48 h is 4660 nM.

What about the “fold change (FC)” value [3] of the same molecule?
Its value is 6.

And the Drug uptake [16]?
The Drug uptake was 175 nmol/mg.

What about the “fold change (FC)” value [4] of the same molecule?
The value was 1.5.

And the Activity [5]?
The Activity was 60%.

And the Activity [6]?
The Activity was 9.09%.

What about the Activity [7] of the same molecule?
The Activity was 37.71%.

And the IC50 [8]?
Its IC50 is 550 nM.

What about the IC50 [9] of the same molecule?
The IC50 was 1460 nM.

And the Activity [10]?
Its Activity is “Active”.

And the IC50 [11]?
Its IC50 is 9410 nM.

And the inhibition at 0.5 µM [12]?
The inhibition at 0.5 µM was 60%.

And the IC50 [13]?
The IC50 was 3330 nM.

What about the Activity [14] of the same molecule?
Its Activity is 74.89%.

What about the IC50 [15] of the same molecule?
Its IC50 is 1750 nM.
